Six molecules from patent US9187464B2, “TRPV4 antagonists” (GlaxoSmithKline Intellectual Property (No. 2) Limited, priority 2011, dated 2015) can be followed below.

The term IC50 denotes the concentration that gives 50% inhibition.

The test addresses T1, human TRPV4 (Homo sapiens, UniProt Q9HBA0).
T1 construct: expressed in transfected cells; host or cells: HEK-293-MSR-II cells transduced with 1% BacMam virus
The experiment in a line: Ligand-gated assay (Fluo4 calcium, FLIPR; inhibition of agonist-induced activation). It is filed as cell-based. Particulars: HEK-293-MSR-II cells transduced with BacMam human TRPV4; agonist at EC80. The essentials:
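HEK-293-MSR-II cells BacMam-transduced with human TRPV4, loaded with 2 uM Fluo-4. Compound preincubated 10 min at room temperature in HBSS pH 7.4 plus 0.01% Chaps, then agonist added at its EC80. Inhibition of agonist-evoked calcium rise read on FLIPR; IC50 reported.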

SMILES strings stand for the structures.

T1 sequence (Q9HBA0 whole entry): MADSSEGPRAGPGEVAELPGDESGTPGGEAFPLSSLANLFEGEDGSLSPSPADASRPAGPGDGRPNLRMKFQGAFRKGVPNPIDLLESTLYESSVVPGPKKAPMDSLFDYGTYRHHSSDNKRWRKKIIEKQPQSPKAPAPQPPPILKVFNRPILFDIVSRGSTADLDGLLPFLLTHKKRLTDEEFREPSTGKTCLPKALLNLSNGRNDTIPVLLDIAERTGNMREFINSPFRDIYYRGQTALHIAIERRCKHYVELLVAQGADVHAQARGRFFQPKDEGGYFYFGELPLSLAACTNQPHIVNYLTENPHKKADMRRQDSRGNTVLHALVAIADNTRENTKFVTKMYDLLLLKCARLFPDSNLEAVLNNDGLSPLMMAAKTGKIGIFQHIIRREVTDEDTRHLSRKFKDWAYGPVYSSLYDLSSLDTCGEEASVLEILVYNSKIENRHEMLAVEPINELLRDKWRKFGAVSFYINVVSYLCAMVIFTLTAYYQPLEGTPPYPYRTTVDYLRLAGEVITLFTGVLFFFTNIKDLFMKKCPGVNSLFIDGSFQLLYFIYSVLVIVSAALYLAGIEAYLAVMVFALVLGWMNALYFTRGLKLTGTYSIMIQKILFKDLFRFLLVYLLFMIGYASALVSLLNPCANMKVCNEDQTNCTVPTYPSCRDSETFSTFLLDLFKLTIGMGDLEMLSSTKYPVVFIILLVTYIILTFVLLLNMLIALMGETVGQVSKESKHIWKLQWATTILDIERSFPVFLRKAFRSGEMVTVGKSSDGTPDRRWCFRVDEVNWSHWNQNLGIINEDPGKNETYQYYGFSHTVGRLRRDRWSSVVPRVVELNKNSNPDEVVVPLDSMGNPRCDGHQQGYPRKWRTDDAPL

Regarding `COCCOC(C)(C)c1cnc(N2C[C@@]3(CCC[C@](C)(Cn4cnc5ccc(C#N)cc54)C3)OC2=O)cn1` [Example 163, 1-(((5S,7S)-3-(5-(2-(2-methoxyethoxy)propan-2-yl)pyrazin-2-yl)-7-methyl-2-oxo-1-oxa-3-azaspiro[4.5]decan-7-yl)methyl)-1H-benzo[d]imidazole-6-carbonitrile], the IC50 is 0.1 to 10 nM.
Take `CC(C)(OCCOP(C)(C)=O)c1cnc(N2C[C@@]3(CCC[C@](C)(Cn4cnc5ccc(C#N)cc54)C3)OC2=O)cn1` [Example 164, 2-((2-(5-((5S,7S)-7-((6-cyano-1H-benzo[d]imidazol-1-yl)methyl)-7-methyl-2-oxo-1-oxa-3-azaspiro[4.5]decan-3-yl)pyrazin-2-yl)propan-2-yl)oxy)ethyl dimethylphosphinate]: the IC50 fell in the range of 10 to 50 nM.
As for `Cc1cc(-c2ccc(F)cn2)ncc1N1C[C@@]2(CCC[C@](C)(Cn3cnc4ccc(C#N)cc43)C2)OC1=O` [Example 165, 1-(((5S,7S)-3-(5′-fluoro-4-methyl-[2,2′-bipyridin]-5-yl)-7-methyl-2-oxo-1-oxa-3-azaspiro[4.5]decan-7-yl)methyl)-1H-benzo[d]imidazole-6-carbonitrile], the figure is 0.1 to 10 nM; as for `Cc1cc(N2CCOCC2)ncc1N1C[C@@]2(CCC[C@](C)(Cn3cnc4ccc(C#N)cc43)C2)OC1=O` [Example 166, 1-(((5S,7S)-7-methyl-3-(4-methyl-6-morpholinopyridin-3-yl)-2-oxo-1-oxa-3-azaspiro[4.5]decan-7-yl)methyl)-1H-benzo[d]imidazole-6-carbonitrile], 0.1 to 10 nM; as for `CC(C)(O)c1ccc(N2C[C@@]3(CCC[C@](C)(Cn4cnc5ccc(C#N)cc54)C3)OC2=O)nc1` [Example 167, 1-(((5S,7S)-3-(5-(2-hydroxypropan-2-yl)pyridin-2-yl)-7-methyl-2-oxo-1-oxa-3-azaspiro[4.5]decan-7-yl)methyl)-1H-benzo[d]imidazole-6-carbonitrile], 0.1 to 10 nM.
Then `CC(C)(CO)c1cnc(N2C[C@@]3(CCC[C@](C)(Cn4cnc5ccc(C#N)cc54)C3)OC2=O)cn1` [Example 168, 1-(((5S,7S)-3-(5-(1-hydroxy-2-methylpropan-2-yl)pyrazin-2-yl)-7-methyl-2-oxo-1-oxa-3-azaspiro[4.5]decan-7-yl)methyl)-1H-benzo[d]imidazole-6-carbonitrile], with 10 to 50 nM.
